Assay results: patent publication US6261826A, “Antibiotic TKR2648 and process for producing the same” (Takara Shuzo Co., Ltd., priority 1996, dated 2001)
≈ marks a conversion by molar mass, not a printed value. Entries after “also recorded” stand apart in the source; their conditions may differ.

Key:
[1] = test system: Aspergillus fumigatus TIMM1776; experiment: Minimal inhibitory concentration, liquid medium dilution method; type: cell-based
Experimental: (§1) The antifungal spectra of the above TKR2648 against various microorganisms were determined. Using the liquid medium dilution method, the concentration causing a substantially complete inhibition of fungal growth was determined as minimal inhibitory concentration (μg/ml). In the table, YNBG stands for a medium comprising 0.67% of yeast nitrogen base (manufactured by Difco) and 1.0% of glucose, and BHI stands for a medium comprising 0.5% of brain-heart infusion bouillon (manufactured by Nihon Pharmaceutical).

[2] = test system: Candida albicans TIMM0136; experiment: as above; type: cell-based
Experimental: as §1

Candida kefyr TIMM0301 = experiment: as above; type: cell-based
Experimental: as §1

[3] = test system: Cryptococcus neoformans TIMM0354; experiment: as above; type: cell-based
Experimental: as §1

EL-4 lymphoma cells [4] = experiment: Cytotoxicity to EL-4 lymphoma cells, alamarblue-method; type: cell-based
Experimental: (§2) Effect of the above TKR2648 on tumor cells was examined by measuring inhibitory activity of the metastatic ability of tumor cells, which were inoculated into animals after incubation with TKR2648 for several hours. EL-4 lymphoma or B16 melanoma cells were cultured in RPMI 1640 medium containing 10% of fetal calf serum, and various concentrations of TKR2648 were added to the culture of tumor cells. After overnight culture, cytotoxicity of TKR2648 to the cells was determined by alamarblue-method (Biosource International), and the cells treated with TKR2648 were recovered and injected to C57BL/6 (female) mice via tail vein. Ten days after the injection of EL-4, the mice were sacrified and their livers were obtained and weighed to determine metastasizing tumor cells as increase of weight. Fourteen days after the injection of B16 cells, the mice were scarified and their lungs were obtained and counted metastasizing melanoma colonies. […] This means that TKR2648 may be useful as an anticancer agent by inhibiting metastasis properties of tumor cells without affecting of proliferative properties of tumor cells.

B16 melanoma cells [5] = experiment: Cytotoxicity to B16 melanoma cells, alamarblue-method; type: cell-based
Experimental: as §2

EL-4 lymphoma cells [6] = experiment: Inhibition of metastasis of treated EL-4 cells injected into mice (liver weight); type: in vivo, C57BL/6 (female) mice; conditions: for Inhibition of metastasis / Increase of liver weight mean ± SD: ten days after injection; for Increase of liver weight mean ± SD: * p<0.001
Experimental: as §2

B16 melanoma cells [7] = experiment: Inhibition of metastasis of treated B16 cells injected into mice (lung colonies); type: in vivo, C57BL/6 (female) mice; conditions: for Inhibition of metastasis / Colony number of melanoma mean ± SD: fourteen days after injection; for Colony number of melanoma mean ± SD: lungs
Experimental: as §2

ICR mice = experiment: Toxicity, intraperitoneal administration to mice; type: in vivo; conditions: 50 mg/kg
Solubility = type: physicochemical
[8] = in words, at concentrations inhibiting metastasis
[9] = EL4 cells treated at 0.156 μg/ml
[10] = EL4 cells treated at 0.313 μg/ml
[11] = EL4 cells treated at 0.625 μg/ml
[12] = in words, at the concentrations showing little cytotoxicity
[13] = B16 cells treated at 0.156 μg/ml
[14] = B16 cells treated at 0.625 μg/ml

CCCCC(=O)OC1CC(OC)=CC(=O)O1 (centres unmarked) [TKR2648]
MIC ([1]; Aspergillus fumigatus, TIMM1776, BHI medium): 6.25 µg/mL (≈ 27.4 µM) | Antifungal activity ([1]; in words): active | MIC ([2]; Candida albicans, TIMM0136, YNBG medium): 100 µg/mL (≈ 438 µM) | Antifungal activity ([2]; in words): active | MIC (Candida kefyr TIMM0301; Kluyveromyces marxianus, TIMM0301, YNBG medium): 50 µg/mL (≈ 219 µM) | Antifungal activity (Candida kefyr TIMM0301; in words): active | MIC ([3]; Cryptococcus neoformans, TIMM0354, YNBG medium): 3.13 µg/mL (≈ 13.7 µM) | Antifungal activity ([3]; in words): active | cytotoxicity at 0.156 µg/mL (EL-4 lymphoma cells [4]; Mus musculus, EL4, 0.156 μg/ml, overnight culture): 4.5% | cytotoxicity at 0.313 µg/mL (EL-4 lymphoma cells [4]; Mus musculus, EL4, 0.313 μg/ml, overnight culture): 15.7% | cytotoxicity at 0.625 µg/mL (EL-4 lymphoma cells [4]; Mus musculus, EL4, 0.625 μg/ml, overnight culture): 35.1% | Cytotoxicity (EL-4 lymphoma cells [4]; [8]): little cytotoxicity | cytotoxicity at 0.156 µg/mL (B16 melanoma cells [5]; Mus musculus, B16, 0.156 μg/ml, overnight culture): 4.5% | cytotoxicity at 0.625 µg/mL (B16 melanoma cells [5]; Mus musculus, B16, 0.625 μg/ml, overnight culture): 14.1% | cytotoxicity at 2.5 µg/mL (B16 melanoma cells [5]; Mus musculus, B16, 2.5 μg/ml, overnight culture): 51.3% | Cytotoxicity (B16 melanoma cells [5]; [8]): little cytotoxicity | Inhibition of metastasis (EL-4 lymphoma cells [6]; [9]): 47.4% | Increase of liver weight mean ± SD (EL-4 lymphoma cells [6]; [9]): 0.630 ± 0.107 g | Inhibition of metastasis (EL-4 lymphoma cells [6]; [10]): 67.4% | Increase of liver weight mean ± SD (EL-4 lymphoma cells [6]; [10]): 0.391 ± 0.148 g | Inhibition of metastasis (EL-4 lymphoma cells [6]; [11]): 89.3% | Increase of liver weight mean ± SD (EL-4 lymphoma cells [6]; [11]): 0.128 ± 0.043 g | Metastasis of EL-4 tumor cells to normal tissues (EL-4 lymphoma cells [6]; [12]): inhibited metastasis | Inhibition of metastasis (B16 melanoma cells [7]; [13]): 9.6% | Colony number of melanoma mean ± SD (B16 melanoma cells [7]; [13]): 58.3 ± 16.3 | Inhibition of metastasis (B16 melanoma cells [7]; [14]): 29.7% | Colony number of melanoma mean ± SD (B16 melanoma cells [7]; [14]): 45.3 ± 3.8 | Inhibition of metastasis (B16 melanoma cells [7]; B16 cells treated at 2.5 μg/ml): 96.4% | Colony number of melanoma mean ± SD (B16 melanoma cells [7]; B16 cells treated at 2.5 μg/ml, * p<0.001): 2.3 ± 2.3 | Metastasis of B16 tumor cells to normal tissues (B16 melanoma cells [7]; [12]): inhibited metastasis | Toxic signs (ICR mice): no toxic signs | Solubility (Solubility; in chloroform): Soluble | Solubility (Solubility; in hexane): practically insoluble; also recorded: sparingly soluble | Solubility (Solubility; in methanol): Soluble | Solubility (Solubility; in water): practically insoluble; also recorded: sparingly soluble
